Measurements as given in ChEMBL document CHEMBL1151043, “The synthesis and antibacterial activity of 2-para-quarternary ammoniomethylphenyl-carbapenems” (1993).
Converted amounts (≈) assume the structure as drawn.

What was measured:
[1] = biological target: T1, Dipeptidase 1 (Sus scrofa) (UniProt P22412); assay: Susceptibility of compound towards porcine Dehydropeptidase-1 relative to imipenem as […] was calculated
T1 sequence (whole entry): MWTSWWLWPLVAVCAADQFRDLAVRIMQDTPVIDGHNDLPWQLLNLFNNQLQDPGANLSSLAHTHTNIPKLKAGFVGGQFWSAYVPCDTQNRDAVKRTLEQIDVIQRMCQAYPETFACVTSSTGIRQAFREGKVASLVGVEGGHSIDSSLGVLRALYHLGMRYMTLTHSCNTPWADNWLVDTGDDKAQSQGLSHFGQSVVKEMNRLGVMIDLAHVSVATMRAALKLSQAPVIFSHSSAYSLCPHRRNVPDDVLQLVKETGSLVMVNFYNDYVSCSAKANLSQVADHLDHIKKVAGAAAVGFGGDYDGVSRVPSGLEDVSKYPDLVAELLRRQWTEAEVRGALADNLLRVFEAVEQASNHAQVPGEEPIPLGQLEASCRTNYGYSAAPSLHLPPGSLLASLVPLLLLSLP

[2] = test system: Enterococcus; assay: In vitro antibacterial activity against Enterococcus relative to thienamycin; type: functional
[3] = test system: Escherichia coli; assay: In vitro antibacterial activity against Escherichia coli relative to thienamycin; type: functional
[4] = test system: Enterobacter; assay: In vitro antibacterial activity against Enterobacter relative to thienamycin; type: functional
[5] = test system: Klebsiella; assay: In vitro antibacterial activity against Klebsiella relative to thienamycin; type: functional
[6] = test system: Pseudomonas; assay: In vitro antibacterial activity against Pseudomonas relative to thienamycin; type: functional
[7] = test system: Proteus; assay: In vitro antibacterial activity against Proteus relative to thienamycin; type: functional, Proteus sp.
[8] = test system: Serratia; assay: In vitro antibacterial activity against Serratia relative to thienamycin; type: functional
[9] = test system: Staphylococcus aureus; assay: In vitro antibacterial activity against Staphylococcus aureus (4) relative to Thienamycin (1); type: functional
[10] = test system: Proteus; assay: In vitro antibacterial activity against Proteus relative to Thienamycinv; type: functional, Proteus sp.
[11] = test system: Staphylococcus aureus; assay: In vitro antibacterial activity against Staphylococcus aureus relative to thienamycin; type: functional
[12] = test system: Escherichia coli; assay: Minimum inhibitory concentration required for the antibacterial activity against Escherichia coli; type: functional
[13] = test system: Enterobacter; assay: Minimum inhibitory concentration required for the antibacterial activity against Enterobacter; type: functional
[14] = test system: Klebsiella; assay: Minimum inhibitory concentration required for the antibacterial activity against Klebsiella; type: functional
[15] = test system: Pseudomonas; assay: Minimum inhibitory concentration required for the antibacterial activity against Pseudomonas relative to Thienamycin (1); type: functional
[16] = test system: Proteus; assay: Minimum inhibitory concentration required for the antibacterial activity against Proteus; type: functional, Proteus sp.
[17] = test system: Serratia; assay: Minimum inhibitory concentration required for the antibacterial activity against Serratia; type: functional
[18] = test system: Staphylococcus aureus; assay: Minimum inhibitory concentration required for the antibacterial activity against Staphylococcus aureus; type: functional
[19] = test system: Enterococcus; assay: Minimum inhibitory concentration required for the antibacterial activity against Enterococcus; type: functional

SMILES | Susceptibility [1] | Relative potency [2] | Relative potency [3] | Relative potency [4] | Relative potency [5] | Relative potency [6] | Relative potency [7] | Relative potency [8] | Relative potency [9] | Relative potency [10] | Relative potency [11] | MIC [12] | MIC [13] | MIC [14] | MIC [15] | MIC [16] | MIC [17] | MIC [18] | MIC [19]
C[C@@H](O)[C@H]1C(=O)N2C(C(=O)[O-])=C(c3ccc(C[n+]4ccc(CS(=O)(=O)[O-])cc4)cc3)C[C@H]12.[K+] | 0.06 | 3.5 | 6.5 | 9.2 | 1.6 | 0.04 | 9.8 | 9.8 | 0.5 | – | – | – | – | – | – | – | – | – | –
Cc1cc[n+](Cc2ccc(C3=C(C(=O)[O-])N4C(=O)[C@H]([C@@H](C)O)[C@H]4C3)cc2)cc1 | 0.06 | 14.9 | 4.6 | 9.2 | 2.8 | 0.1 | 12.1 | 22.6 | 1.1 | – | – | – | – | – | – | – | – | – | –
C[C@@H](O)[C@H]1C(=O)N2C(C(=O)[O-])=C(c3ccc(C[n+]4cccc(C(=O)[O-])c4)cc3)C[C@H]12.[K+] | – | 5.3 | 6.1 | 12.1 | 2 | 0.08 | 27.9 | 27.9 | 0.6 | – | – | – | – | – | – | – | – | – | –
C[C@@H](O)[C@H]1C(=O)N2C(C(=O)[O-])=C(c3ccc(C[n+]4cccc(C(=O)N(C)C)c4)cc3)C[C@H]12 | 0.05 | 5.7 | 2.3 | 3.5 | 1.1 | 0.04 | 4.6 | 4 | 0.3 | – | – | – | – | – | – | – | – | – | –
C[C@@H](O)[C@H]1C(=O)N2C(C(=O)[O-])=C(c3ccc(C[n+]4ccc(CCS(=O)(=O)[O-])cc4)cc3)C[C@H]12.[K+] | 0.06 | 4.3 | 5.7 | 7 | 1.1 | 0.04 | 17.1 | 10.6 | 0.4 | – | – | – | – | – | – | – | – | – | –
CO[C@@]1(NC(=O)Cc2cccs2)C(=O)N2C(C(=O)O)=C(COC(N)=O)CS[C@@H]21 [CEFOXITIN] | – | 0.06 | 0.1 | 0.03 | 0.04 | – | 0.6 | 0.3 | 0.03 | – | – | – | – | – | – | – | – | – | –
C[C@@H](O)[C@H]1C(=O)N2C(C(=O)O)=C(c3ccc(CN4CCOCC4)cc3)C[C@H]12 | 0.13 | 8.6 | 3.5 | 5.3 | 1.4 | 0.03 | – | 8 | – | 10.6 | 0.6 | – | – | – | – | – | – | – | –
C[C@@H](O)[C@H]1C(=O)N2C(C(=O)[O-])=C(c3ccc(C[n+]4cccc(CSCCC#N)c4)cc3)C[C@H]12 | 0.05 | 8 | 8 | 8.6 | 4.6 | 0.08 | 7 | 14.9 | 1 | – | – | – | – | – | – | – | – | – | –
C[C@@H](O)[C@H]1C(=O)N2C(C(=O)[O-])=C(c3ccc(C[n+]4ccc(CN)cc4)cc3)C[C@H]12 | 0.04 | 7 | 1.7 | 2.6 | 0.8 | 0.05 | 4.3 | 6.1 | 0.5 | – | – | – | – | – | – | – | – | – | –
C[C@@H](O)[C@H]1C(=O)N2C(C(=O)O)=C(SCCN)C[C@H]12 [THIENAMYCIN] | 1 | – | – | – | – | – | – | – | – | – | – | 0.37 µg/mL (≈ 1.36 µM) | 0.67 µg/mL (≈ 2.46 µM) | 0.88 µg/mL (≈ 3.23 µM) | 1.79 µg/mL (≈ 6.57 µM) | 1.9 µg/mL (≈ 6.98 µM) | 0.93 µg/mL (≈ 3.42 µM) | 0.03 µg/mL (≈ 0.11 µM) | 3.6 µg/mL (≈ 13.2 µM)
CSc1ccc[n+](Cc2ccc(C3=C(C(=O)[O-])N4C(=O)[C@H]([C@@H](C)O)[C@H]4C3)cc2)c1 | 0.06 | 10.6 | 4.3 | 11.3 | 3.7 | 0.08 | 9.2 | 19.7 | 2.6 | – | – | – | – | – | – | – | – | – | –
CSCc1ccc[n+](Cc2ccc(C3=C(C(=O)[O-])N4C(=O)[C@H]([C@@H](C)O)[C@H]4C3)cc2)c1 | 0.05 | 19.7 | 6.1 | 10.6 | 3.7 | 0.08 | 6.5 | 29.9 | 1.9 | – | – | – | – | – | – | – | – | – | –
C[C@@H](O)[C@H]1C(=O)N2C(C(=O)O)=C(SCCNC=N)C[C@H]12.O [IMIPENEM] | 0.85 | 1.5 | 1.6 | 1.8 | 1.5 | 4 | 1.6 | 1.8 | 1.8 | – | – | – | – | – | – | – | – | – | –
